{
  "source": "patent US9034891B2",
  "about": "“Bicyclic heterocyclic spiro compounds” (ISRAEL INSTITUTE FOR BIOLOGICAL RESEARCH, priority 2009, dated 2015)",
  "key": {"M1 mAChR": {"molecular_target": "T1, M1 mAChR (Homo sapiens, UniProt P11229)", "T1 sequence (P11229 1-460)": "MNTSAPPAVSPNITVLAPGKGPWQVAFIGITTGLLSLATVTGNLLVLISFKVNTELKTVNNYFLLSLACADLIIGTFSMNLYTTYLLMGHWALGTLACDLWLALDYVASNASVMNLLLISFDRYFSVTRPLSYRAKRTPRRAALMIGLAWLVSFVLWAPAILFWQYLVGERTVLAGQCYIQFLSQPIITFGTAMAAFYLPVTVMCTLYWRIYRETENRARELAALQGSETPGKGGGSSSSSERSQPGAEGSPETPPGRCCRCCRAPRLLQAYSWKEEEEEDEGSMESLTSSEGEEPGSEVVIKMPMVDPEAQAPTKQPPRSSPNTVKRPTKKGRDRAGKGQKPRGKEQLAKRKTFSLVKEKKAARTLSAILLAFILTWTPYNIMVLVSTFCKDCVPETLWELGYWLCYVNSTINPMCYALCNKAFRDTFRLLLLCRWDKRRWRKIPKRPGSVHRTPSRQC", "assay": "Intracellular Ca2+ mobilization (Fluo-4 NW) in cells stably transfected with M1 mAChR", "type": "cell-based", "set-up": "expressed in transfected cells", "conditions": "100 μM; mobilization of intracellular Ca ions", "source_text": "On the day of experiment, cells were fully confluent.\nTo evaluate selectivity for a subtype of mAChR, in particular the M1 mAChR vs. M3 and MS mAChR, the assays were calibrated using ligands that have a combined activity, e.g. M1 agonistic and M3 antagonistic or M1 agonistic and MS antagonistic profiles, respectively. This can eliminate effects due to different receptor reserves in cell-based assays."}, "Wistar rats": {"tested_on": "Wistar rats", "assay": "Passive avoidance, trihexyphenidyl-induced memory impairment in rats", "type": "in vivo, rat", "source_text": "(§1) Trihexyphenidyl is a selective M1 muscarinic antagonist that crosses the blood brain barrier and induces memory and learning impairments (Bymaster et al., J Pharmacol Exp. Ther. 267: 16-24, 1993; Roldan et al., Neurosci. Lett. 230: 93-96, 1997; Kimura et al., Brain Res. 834: 6-12, 1999). […] Naive Wistar rats were used in the experiments below. The passive avoidance (PA) task consists of a training (acquisition) phase and a retention phase. In the training procedure each rat was individually placed in the small illuminated compartment and after 60 s. of familiarization/adaptation, the door to the large compartment was opened and the latency to enter was measured (Initial Latency) Immediately following entry into the dark compartment, the door was closed and inescapable foot shock (0.6 mA for 3 s) was delivered through the grid floor. […] After the acquisition trial the rat was returned to its home cage. Retention of the passive avoidance task was measured 24 h later, by again placing the rat in the light compartment and after a 60 s adaptation interval, the door was opened and the latency to re-enter the dark compartment was measured. […] Two separate experiments were conducted. […] In both experiments the rats were divided into 2 groups. One main group was treated with trihexyphenidyl (5 mg/kg, s.c) and the second main group was treated with vehicle (DDW-1 ml/kg, s.c.), 30 min before the shock.\nIn a further extension of these studies, retention of the passive avoidance task was measured 72 h later, by again placing the rat in the light compartment and after a 60 s adaptation interval, the door was opened and the latency to re-enter the dark compartment was measured. A cutoff point of 600 s was used for retention latency. […] Rats were divided into 2 groups. One group (N=30) was treated with trihexyphenidyl (5 mg/kg, s.c) and the second group (N=29) was treated with vehicle (DDW-1 ml/kg, s.c.), 30 min before the shock."}, "tau protein": {"tested_on": "tau protein", "assay": "Tau-1 (unphosphorylated tau) western blot in PC12 cells transfected with M1 mAChR, +Aβ25-35", "type": "cell-based, rat", "conditions": "100 μM-1 nM; Aβ25-35 20 μM", "description": "Anti-GSK-3 (Santa Cruz Biotechnology) is a phosphorylation-independent monoclonal antibody reactive with both GSK-3α and GSK3β. In the same experiments the status of tau protein phosphorylation was studied using mouse anti Tau-1 monoclonal antibody (Chemicon, CAT number MAB3420), which recognizes an unphosphorylated epitope of tau."}, "rats": {"tested_on": "rats", "assay": "Passive avoidance, MK-801-induced impairment in rats", "type": "in vivo, rat", "source_text": "as §1\nMK-801 is an NMDA antagonist that induces cognitive behavioral impairments in rodents. […] In the first experiment (dose-finding study of MK-801) rats were divided into 4 groups. Three groups (N=27) were treated with MK-801 (50, 80 or 100 μg/kg, s.c) and the fourth group (N=10) was treated with vehicle (saline-1 ml/kg, s.c.), 30 min before the shock. […] One group (N=80) was treated with MK-801 (80 μg/kg, s.c) and the second group (N=59) was treated with the vehicle (saline-1 ml/kg, s.c.)."}, "Sigma Receptor": {"tested_on": "Sigma Receptor", "assay": "High-throughput profiling, binding at 10 μM", "source_text": "(§2) It was specifically designed to provide information not only on potential limitations of drug candidates, but also for off-target activity identification. […] In a further extension of this study, functional studies were done on most of these receptors."}, "5HT2A receptor": {"molecular_target": "5HT2A receptor (Homo sapiens, UniProt P28223)", "sequence (P28223 whole entry)": "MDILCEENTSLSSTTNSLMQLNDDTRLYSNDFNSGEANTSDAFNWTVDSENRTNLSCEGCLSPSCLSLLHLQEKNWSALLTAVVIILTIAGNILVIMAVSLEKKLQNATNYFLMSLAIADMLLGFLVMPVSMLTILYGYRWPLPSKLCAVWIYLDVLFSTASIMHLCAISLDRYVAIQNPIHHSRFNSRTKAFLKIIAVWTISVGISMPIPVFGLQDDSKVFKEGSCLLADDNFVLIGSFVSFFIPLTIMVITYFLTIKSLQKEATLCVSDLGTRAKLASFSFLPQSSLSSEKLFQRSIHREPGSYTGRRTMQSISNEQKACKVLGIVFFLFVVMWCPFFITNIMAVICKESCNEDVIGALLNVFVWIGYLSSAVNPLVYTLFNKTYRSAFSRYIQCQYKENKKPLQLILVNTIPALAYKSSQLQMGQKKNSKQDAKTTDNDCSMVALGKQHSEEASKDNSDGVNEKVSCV", "assay": "High-throughput profiling, binding at 10 μM", "source_text": "as §2"}, "Mu Receptor [1]": {"molecular_target": "T2, Mu Receptor (Homo sapiens, UniProt P35372)", "T2 sequence (P35372 whole entry)": "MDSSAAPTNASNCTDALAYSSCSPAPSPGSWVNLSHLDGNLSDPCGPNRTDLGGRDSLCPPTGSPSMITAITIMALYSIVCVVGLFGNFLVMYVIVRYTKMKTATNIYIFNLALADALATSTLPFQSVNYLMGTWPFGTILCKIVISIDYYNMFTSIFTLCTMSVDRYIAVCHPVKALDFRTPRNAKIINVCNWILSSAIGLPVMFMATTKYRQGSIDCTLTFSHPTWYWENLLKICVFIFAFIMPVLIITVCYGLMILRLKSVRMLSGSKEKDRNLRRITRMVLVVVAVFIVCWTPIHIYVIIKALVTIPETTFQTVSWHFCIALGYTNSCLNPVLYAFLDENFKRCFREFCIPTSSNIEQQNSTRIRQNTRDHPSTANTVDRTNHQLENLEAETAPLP", "assay": "High-throughput profiling, binding at 10 μM", "source_text": "as §2"}, "5HT2C Receptor": {"molecular_target": "5HT2C Receptor (Homo sapiens, UniProt P28335)", "sequence (P28335 33-458)": "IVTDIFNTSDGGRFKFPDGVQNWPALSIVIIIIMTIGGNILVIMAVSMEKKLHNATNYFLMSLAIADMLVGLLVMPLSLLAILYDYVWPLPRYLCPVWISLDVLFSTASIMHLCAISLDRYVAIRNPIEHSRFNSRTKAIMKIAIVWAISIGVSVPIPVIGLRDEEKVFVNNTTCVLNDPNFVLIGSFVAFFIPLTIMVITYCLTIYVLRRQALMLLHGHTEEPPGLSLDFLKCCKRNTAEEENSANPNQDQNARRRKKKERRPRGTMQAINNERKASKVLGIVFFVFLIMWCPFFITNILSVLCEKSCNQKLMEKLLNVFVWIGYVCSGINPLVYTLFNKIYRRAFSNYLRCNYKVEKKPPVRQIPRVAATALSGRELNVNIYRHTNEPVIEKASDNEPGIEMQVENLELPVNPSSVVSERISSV", "assay": "High-throughput profiling, binding at 10 μM", "source_text": "as §2"}, "5HT2B Receptor [2]": {"molecular_target": "T3, 5HT2B Receptor (Homo sapiens, UniProt P41595)", "T3 sequence (P41595 whole entry)": "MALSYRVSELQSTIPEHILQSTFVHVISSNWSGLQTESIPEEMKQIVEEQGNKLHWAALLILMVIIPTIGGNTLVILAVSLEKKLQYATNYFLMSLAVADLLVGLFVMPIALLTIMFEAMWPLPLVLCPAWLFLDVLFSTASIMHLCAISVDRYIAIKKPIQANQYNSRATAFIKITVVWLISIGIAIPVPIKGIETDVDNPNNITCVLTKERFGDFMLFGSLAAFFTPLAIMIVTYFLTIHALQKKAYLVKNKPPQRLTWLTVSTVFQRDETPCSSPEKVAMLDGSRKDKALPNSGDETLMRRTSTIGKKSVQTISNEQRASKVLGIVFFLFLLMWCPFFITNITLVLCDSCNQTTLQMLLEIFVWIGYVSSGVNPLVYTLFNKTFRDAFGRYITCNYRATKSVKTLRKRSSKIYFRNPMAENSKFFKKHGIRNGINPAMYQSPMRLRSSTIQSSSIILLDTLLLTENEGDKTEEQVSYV", "assay": "High-throughput profiling, binding at 10 μM", "source_text": "as §2"}, "M2 mAChR": {"molecular_target": "M2 mAChR (Homo sapiens, UniProt P08172)", "sequence (P08172 whole entry)": "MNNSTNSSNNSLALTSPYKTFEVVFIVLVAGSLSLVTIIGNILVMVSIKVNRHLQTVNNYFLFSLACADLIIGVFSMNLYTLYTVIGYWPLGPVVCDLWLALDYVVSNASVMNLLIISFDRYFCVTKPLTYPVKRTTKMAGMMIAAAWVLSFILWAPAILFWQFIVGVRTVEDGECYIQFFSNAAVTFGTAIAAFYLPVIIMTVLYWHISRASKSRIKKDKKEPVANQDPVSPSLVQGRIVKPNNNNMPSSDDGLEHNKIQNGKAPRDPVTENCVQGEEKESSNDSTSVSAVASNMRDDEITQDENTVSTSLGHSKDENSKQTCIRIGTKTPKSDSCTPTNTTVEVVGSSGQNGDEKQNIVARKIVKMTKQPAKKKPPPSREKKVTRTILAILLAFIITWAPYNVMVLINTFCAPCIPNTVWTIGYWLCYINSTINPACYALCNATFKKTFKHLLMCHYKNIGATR", "assay": "High-throughput profiling, binding at 10 μM", "source_text": "as §2"}, "Histamine 2 Receptor": {"molecular_target": "Histamine 2 Receptor (Homo sapiens, UniProt P25021)", "sequence (P25021 whole entry)": "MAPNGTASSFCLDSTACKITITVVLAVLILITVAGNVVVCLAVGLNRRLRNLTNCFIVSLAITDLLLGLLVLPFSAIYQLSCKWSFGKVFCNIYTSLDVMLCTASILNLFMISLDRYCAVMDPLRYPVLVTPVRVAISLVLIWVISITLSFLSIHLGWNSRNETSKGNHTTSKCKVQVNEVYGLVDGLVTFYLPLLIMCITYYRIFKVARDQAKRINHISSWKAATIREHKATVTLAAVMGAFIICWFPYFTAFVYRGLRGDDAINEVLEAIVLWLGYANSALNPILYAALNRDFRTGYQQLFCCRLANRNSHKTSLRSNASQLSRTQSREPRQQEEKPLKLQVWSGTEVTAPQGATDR", "assay": "High-throughput profiling, binding at 10 μM", "source_text": "as §2"}, "5HT Transporter": {"molecular_target": "5HT Transporter (Homo sapiens, UniProt P31645)", "sequence (P31645 whole entry, species assumed)": "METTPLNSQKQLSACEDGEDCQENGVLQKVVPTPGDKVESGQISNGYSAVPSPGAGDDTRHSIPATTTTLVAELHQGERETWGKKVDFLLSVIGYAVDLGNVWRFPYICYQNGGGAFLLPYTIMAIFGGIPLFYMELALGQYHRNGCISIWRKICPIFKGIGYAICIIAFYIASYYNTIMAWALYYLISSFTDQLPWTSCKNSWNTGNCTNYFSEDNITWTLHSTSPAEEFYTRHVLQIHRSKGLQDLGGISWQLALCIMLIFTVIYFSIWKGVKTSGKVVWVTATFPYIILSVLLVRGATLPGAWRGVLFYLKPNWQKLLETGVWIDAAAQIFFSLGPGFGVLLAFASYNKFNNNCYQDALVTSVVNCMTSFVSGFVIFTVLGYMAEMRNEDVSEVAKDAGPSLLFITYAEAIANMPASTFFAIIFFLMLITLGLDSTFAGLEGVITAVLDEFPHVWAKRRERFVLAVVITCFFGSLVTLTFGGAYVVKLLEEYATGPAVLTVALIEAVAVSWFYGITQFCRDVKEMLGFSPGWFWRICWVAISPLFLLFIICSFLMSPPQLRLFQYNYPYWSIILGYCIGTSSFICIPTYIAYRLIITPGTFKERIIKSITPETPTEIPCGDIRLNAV", "assay": "High-throughput profiling, binding at 10 μM", "source_text": "as §2"}, "ERK 1/2 phosphorylation": {"tested_on": "ERK 1/2 phosphorylation", "assay": "Phospho-p44/42 MAPK (ERK 1/2) detection in PC12M1 cells", "type": "cell-based, rat", "conditions": "3 hours"}, "Mu Receptor [3]": {"molecular_target": "T2, Mu Receptor", "assay": "Functional study, agonist", "source_text": "as §2"}, "5HT2B Receptor [4]": {"molecular_target": "T3, 5HT2B Receptor", "assay": "Functional study, agonist", "conditions": "100 μM", "source_text": "as §2"}},
  "note": "Where “and” joins values, the source holds several entries; their conditions need not be identical. Equal entries are not always repeated.",
  "data": [
    {"smiles": "C[C@@H]1SC2(CCN(C)CC2)CN1C(=O)CCc1c[nH]c2ccccc12", "note": "(single isomer, unassigned) [AF710B]", "values": [
      {"measurement": "M1 agonist at 100 μM vs. carbachol (full muscarinic agonist, 100%)", "setting": "M1 mAChR", "result": 66, "unit": "%"},
      {"measurement": "retention latency", "setting": "Wistar rats; 1 μg/kg po, 72 h, cutoff 600 s, trihexyphenidyl+DDW 98.6±28.0, control 568.7±23.7", "result": "276.3 ± 60.7", "unit": "s"},
      {"measurement": "retention latency", "setting": "Wistar rats; 10 μg/kg po, 72 h, cutoff 600 s", "result": "272.7 ± 51.6", "unit": "s"},
      {"measurement": "retention latency", "setting": "Wistar rats; AF710B 10 μg/kg with NE-100 1 mg/kg", "result": "185.4 ± 44.0", "unit": "s"},
      {"measurement": "retention latency", "setting": "Wistar rats; Experiment 1, 10 μg/kg po, 24 h, cutoff 300 s, trihexyphenidyl+DDW 54.22±14.60, control 242.00±30.60", "result": "252.50 ± 32.30", "unit": "s"},
      {"measurement": "retention latency", "setting": "Wistar rats; Experiment 1, 30 μg/kg po, 24 h, cutoff 300 s", "result": "178.82 ± 32.70", "unit": "s"},
      {"measurement": "retention latency", "setting": "Wistar rats; Experiment 1, 100 μg/kg po, 24 h, not different from trihexyphenidyl+DDW", "result": "122.00 ± 34.60", "unit": "s"},
      {"measurement": "retention latency", "setting": "Wistar rats; Experiment 2, 1 μg/kg po, 24 h, trihexyphenidyl+DDW 63.89±18.79, control 274.70±20.8", "result": "215.6 ± 36.00", "unit": "s"},
      {"measurement": "retention latency", "setting": "Wistar rats; Experiment 2, 3 μg/kg po, 24 h", "result": "219.80 ± 36.00", "unit": "s"},
      {"measurement": "retention latency", "setting": "Wistar rats; NE-100 experiment, AF710B 10 μg/kg, trihexyphenidyl+DDW 122.0±29.2, control 525.7±51.0", "result": "361.7 ± 67.1", "unit": "s"},
      {"measurement": "cognitive enhancer dose range", "setting": "Wistar rats; po, trihexyphenidyl-induced passive avoidance impairment", "result": "1 to 30", "unit": "µg/kg"},
      {"measurement": "Tau-1 staining decreased by Aβ25-35", "setting": "tau protein", "result": "restored these effects to control level"},
      {"measurement": "retention latency", "setting": "rats; 10 μg/kg po, MK-801 80 μg/kg sc, MK-801+DDW 94.7±24.7", "result": "336.3 ± 70 s and 336.3 ± 70.0 s"},
      {"measurement": "retention latency", "setting": "rats; 30 μg/kg po, MK-801 80 μg/kg sc", "result": "370.0 ± 60 s and 370.0 ± 57.0 s"},
      {"measurement": "retention latency", "setting": "rats; 100 μg/kg po, MK-801 80 μg/kg sc", "result": "325.6 ± 66.6", "unit": "s"},
      {"measurement": "retention latency vs. MK-801 rats treated with DDW", "setting": "rats; 1, 3 and 5 or 300 μg/kg, po", "result": "not significantly different"},
      {"measurement": "retention latency", "setting": "rats; AF710B 10 μg/kg with NE-100 1 mg/kg, MK801 80 μg/kg", "result": "184.8 ± 58.0", "unit": "s"},
      {"measurement": "retention latency", "setting": "rats; AF710B 30 μg/kg with NE-100 1 mg/kg, MK801 80 μg/kg", "result": "227.3 ± 38.5", "unit": "s"},
      {"measurement": "cognitive enhancer dose range", "setting": "rats; po, MK801-induced passive avoidance impairment", "result": "10 to 100", "unit": "µg/kg"},
      {"measurement": "binding to Sigma Receptor", "setting": "Sigma Receptor", "result": "binds"},
      {"measurement": "binding to 5 HT2A Receptor", "setting": "5HT2A receptor", "result": "binds"},
      {"measurement": "binding to Mu Receptor", "setting": "Mu Receptor [1]", "result": "binds"},
      {"measurement": "binding to 5HT2C Receptor", "setting": "5HT2C Receptor", "result": "binds"},
      {"measurement": "binding to 5HT2B Receptor", "setting": "5HT2B Receptor [2]", "result": "binds"},
      {"measurement": "binding to M2 mAChR", "setting": "M2 mAChR", "result": "binds"},
      {"measurement": "binding to Histamine 2 Receptor", "setting": "Histamine 2 Receptor", "result": "binds"},
      {"measurement": "binding to 5HT Transporter", "setting": "5HT Transporter", "result": "binds"},
      {"measurement": "phospho-ERK1/2, compound alone", "setting": "ERK 1/2 phosphorylation", "result": "does not increase"},
      {"measurement": "EC50", "setting": "Mu Receptor [3]", "result": 13, "unit": "µM"},
      {"measurement": "partial agonist efficacy on 5HT2B receptor", "setting": "5HT2B Receptor [4]", "result": 17, "unit": "%"}
    ]}
  ]
}
